The structures appear in SMILES notation.

The values that follow come from patent US8183239B2, “Substituted piperazines and piperidines as modulators of the neuropeptide Y2 receptor” (Janssen Pharmaceutica NV, priority 2005, dated 2012).

The target in this test is T1, Y2 receptors (Homo sapiens, UniProt P49146).
T1 construct: endogenous in cells; host or cells: KAN-Ts cells (membranes)
T1 sequence (P49146 1-381): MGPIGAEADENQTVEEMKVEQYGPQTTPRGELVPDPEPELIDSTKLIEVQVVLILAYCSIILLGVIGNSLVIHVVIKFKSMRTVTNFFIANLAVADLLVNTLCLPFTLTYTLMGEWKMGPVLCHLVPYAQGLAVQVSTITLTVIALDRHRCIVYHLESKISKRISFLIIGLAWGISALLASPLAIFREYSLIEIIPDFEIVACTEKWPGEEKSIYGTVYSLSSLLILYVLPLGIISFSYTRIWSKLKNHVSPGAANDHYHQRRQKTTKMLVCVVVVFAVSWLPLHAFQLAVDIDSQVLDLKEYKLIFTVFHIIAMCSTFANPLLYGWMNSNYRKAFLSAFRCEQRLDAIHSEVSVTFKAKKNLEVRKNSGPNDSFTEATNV
The experiment in a line: Radioligand binding assay ([125I]PYY, KAN-Ts cell membranes). To be noted: Table 1, [125I]PYY 80 pM, average of results, read-out: IC50. On the procedure:
Radioligand Binding Assay
KAN-Ts endogenously expressing Y2 receptors were used for the radioligand binding assay. Cells were grown to confluence on 150 cm^2 tissue culture plates, washed with phosphate-buffered saline (PBS), and scraped into 50 mL tubes. After centrifugation, the supernatant was aspirated, and the pellets frozen and stored at −80° C. Thawed pellets were homogenized with a polytron tissue grinder for 15 sec in 20 mM Tris-HCl, 5 mM EDTA. The homogenate was centrifuged at 800×g for 5 min and the collected supernatant was recentrifuged at 25000×g for 25 min. The resulting pellet was resuspended in binding buffer (20 mM HEPES, 120 mM NaCl, 0.22 mM KH2PO4, 1.3 mM CaCl2, 0.8 mM MgSO4). Membranes were incubated with [^125I]PYY (80 pM) in the presence or absence of test compound for 1 h at rt. The reaction was stopped by filtration through GF/C filter plates pre-soaked in 0.3% polyethylenimine and subsequently washed with Tris 50 mM, 5 mM EDTA buffer. Plates were dried for 1 h in a 55° C. oven, scintillation fluid was added and the radioactivity was counted in a Packard TopCount. Specific binding to the NPY receptor subtypes was determined by radioactivity that was bound in the presence of […]. Each binding experiment was repeated three to eight times, each in duplicate. IC50 values (i.e. concentration of unlabelled peptide or antagonist required to compete for 50% of specific binding to the radioligand) were calculated using the GraphPad Prism software (GraphPad Software Inc., San Diego Calif.) with a fit to a sigmoidal dose response curve. Data for compounds tested are presented in Tables 1 and 2 as an average of results obtained.

As for `CCC(CC)C(=O)Nc1ccc(N2CCN(C(C(=O)OC)c3ccccc3)CC2)cc1` (centres unmarked) [Example 60, {4-[4-(2-Ethyl-butyrylamino)-phenyl]-piperazin-1-yl}-phenyl-acetic acid methyl ester], the IC50 came to 0.527 µM.

Turning to `COC(=O)C(c1ccccc1)N1CCN(c2ccc(NC(=O)c3ccccc3)cc2F)CC1` (centres unmarked) [Example 61, [4-(4-Benzoylamino-2-fluoro-phenyl)-piperazin-1-yl]-phenyl-acetic acid methyl ester], the IC50 worked out at 2.5 µM.

Consider `COC(=O)C(c1ccccc1)N1CCN(c2ccc(NC(=O)c3ccccc3C)cc2F)CC1` (centres unmarked) [Example 62, {4-[2-Fluoro-4-(2-methyl-benzoylamino)-phenyl]-piperazin-1-yl}-phenyl-acetic acid methyl ester], for which the IC50 is 1.3 µM.

For the molecule `CCc1ccccc1C(=O)Nc1ccc(N2CCN(C(C(=O)OC)c3ccccc3)CC2)c(F)c1` (centres unmarked) [Example 63, {4-[4-(2-Ethyl-benzoylamino)-2-fluoro-phenyl]-piperazin-1-yl}-phenyl-acetic acid methyl ester], the IC50 was found to be 0.6 µM.

Regarding `COC(=O)C(c1ccccc1)N1CCN(c2ccc(NC(=O)c3ccccc3C(C)C)cc2F)CC1` (centres unmarked) [Example 64, {4-[2-Fluoro-4-(2-isopropyl-benzoylamino)-phenyl]-piperazin-1-yl}-phenyl-acetic acid methyl ester], the IC50 turned out to be 1 µM.

For `COC(=O)C(c1ccccc1)N1CCN(c2ccc(NC(=O)c3ccccc3OC)cc2F)CC1` (centres unmarked) [Example 65, {4-[2-Fluoro-4-(2-methoxy-benzoylamino)-phenyl]-piperazin-1-yl}-phenyl-acetic acid methyl ester], the IC50 turned out to be 1.3 µM.

On to `CNc1ccccc1C(=O)Nc1ccc(N2CCN(C(C(=O)OC)c3ccccc3)CC2)c(F)c1` (centres unmarked) [Example 68, {4-[2-Fluoro-4-(2-methylamino-benzoylamino)-phenyl]-piperazin-1-yl}-phenyl-acetic acid methyl ester], for which the IC50 turned out to be 1.4 µM.

Regarding `CCc1cccc(C(=O)Nc2ccc(N3CCN(C(C(=O)OC)c4ccccc4)CC3)cc2)c1` (centres unmarked) [Example 69, {4-[4-(3-Ethyl-benzoylamino)-phenyl]-piperazin-1-yl}-phenyl-acetic acid methyl ester], the IC50 came out at 25 µM.

For the molecule `COC(=O)C(c1ccccc1)N1CCN(c2ccc(NC(=O)c3cccc(C)c3)cc2)CC1` (centres unmarked) [Example 72, {4-[4-(3-Methyl-benzoylamino)-phenyl]-piperazin-1-yl}-phenyl-acetic acid methyl ester], the IC50 was 6 µM.

Take `COC(=O)C(c1ccccc1)N1CCN(c2ccc(NC(=O)CCC(C)C)cc2F)CC1` (centres unmarked) [Example 78, {4-[2-Fluoro-4-(4-methyl-pentanoylamino)-phenyl]-piperazin-1-yl}-phenyl-acetic acid methyl ester]: the IC50 is 0.23 µM.

Take `CCCCC(CC)C(=O)Nc1ccc(N2CCN(C(C(=O)OC)c3ccccc3)CC2)c(F)c1` (centres unmarked) [Example 79, {4-[4-(2-Ethyl-hexanoylamino)-2-fluoro-phenyl]-piperazin-1-yl}-phenyl-acetic acid methyl ester]: the IC50 came to 0.1 µM.

As for `CCCCC(CC)C(=O)Nc1ccc(N2CCN(C(C(=O)OC)c3ccccc3)CC2)cc1` (centres unmarked) [Example 82, {4-[4-(2-Ethyl-hexanoylamino)-phenyl]-piperazin-1-yl}-phenyl-acetic acid methyl ester], the IC50 turned out to be 0.4 µM.

As for `CCCCCC(=O)Nc1ccc(N2CCN(C(C(=O)OC)c3ccccc3)CC2)cc1` (centres unmarked) [Example 83, [4-(4-Hexanoylamino-phenyl)-piperazin-1-yl]-phenyl-acetic acid methyl ester], the concentration for half-maximal inhibition (IC50) came to 3.6 µM.

Consider `COC(=O)C(c1ccccc1)N1CCN(c2ccc(NC(=O)CCc3ccccc3)cc2)CC1` (centres unmarked) [Example 84, Phenyl-{4-[4-(3-phenyl-propionylamino)-phenyl]-piperazin-1-yl}-acetic acid methyl ester], for which the IC50 worked out at 3.35 µM.

For `CCCC(C)C(=O)Nc1ccc(N2CCN(C(C(=O)OC)c3ccccc3)CC2)cc1` (centres unmarked) [Example 85, {4-[4-(2-Methyl-pentanoylamino)-phenyl]-piperazin-1-yl}-phenyl-acetic acid methyl ester], the IC50 came to 1.3 µM.

`CCCCC(=O)Nc1ccc(N2CCN(C(C(=O)OC)c3ccccc3)CC2)cc1` (centres unmarked) [Example 86, [4-(4-Pentanoylamino-phenyl)-piperazin-1-yl]-phenyl-acetic acid methyl ester]: the IC50 came to 4.8 µM.

`COC(=O)C(c1ccccc1)N1CCN(c2ccc(NC(=O)CCC(C)C)cc2)CC1` (centres unmarked) [Example 87, {4-[4-(4-Methyl-pentanoylamino)-phenyl]-piperazin-1-yl}-phenyl-acetic acid methyl ester]: the 50% inhibitory concentration (IC50) is 1.7 µM.

As for `CCNC(=O)C(c1ccccc1)N1CCN(c2ccc(NC(=O)CCC(C)C)cc2F)CC1` (centres unmarked) [Example 88, 4-Methyl-pentanoic acid {4-[4-(ethylcarbamoyl-phenyl-methyl)-piperazin-1-yl]-3-fluoro-phenyl}-amide], the IC50 was 1 µM.

Turning to `CCCCC(CC)C(=O)Nc1ccc(N2CCN(C(C(=O)NCC)c3ccccc3)CC2)c(F)c1` (centres unmarked) [Example 89, 2-Ethyl-hexanoic acid {4-[4-(ethylcarbamoyl-phenyl-methyl)-piperazin-1-yl]-3-fluoro-phenyl}-amide], the IC50 was 1.03 µM.

On to `CCNC(=O)C(c1ccccc1)N1CCN(c2ccc(NC(=O)CCc3ccccc3)cc2F)CC1` (centres unmarked) [Example 90, N-{4-[4-(Ethylcarbamoyl-phenyl-methyl)-piperazin-1-yl]-3-fluoro-phenyl}-3-phenyl-propionamide], for which the IC50 amounted to 9.7 µM.

In the case of `CCNC(=O)C(c1ccccc1)N1CCN(c2ccc(NC(=O)CCN(CC)CC)cc2F)CC1` (centres unmarked) [Example 91, 3-Diethylamino-N-{4-[4-(ethylcarbamoyl-phenyl-methyl)-piperazin-1-yl]-3-fluoro-phenyl}-propionamide], the IC50 stood at 10 µM.

As for `CCNC(=O)C(c1ccccc1)N1CCN(c2ccc(NC(=O)Cc3ccncc3)cc2F)CC1` (centres unmarked) [Example 92, N-Ethyl-2-{4-[2-fluoro-4-(2-pyridin-4-yl-acetylamino)-phenyl]-piperazin-1-yl}-2-phenyl-acetamide], the IC50 amounted to 5.1 µM.

As for `CCNC(=O)C(c1ccccc1)N1CCN(c2ccc(NC(=O)C(CC3CCCN3)C(F)(F)F)cc2F)CC1` (centres unmarked) [Example 93, N-{4-[4-(Ethylcarbamoyl-phenyl-methyl)-piperazin-1-yl]-3-fluoro-phenyl}-3,3,3-trifluoro-2-pyrrolidin-2-ylmethyl-propionamide], the IC50 was 5 µM.

Turning to `CCNC(=O)C(c1ccccc1)N1CCN(c2ccc(NC(=O)C(CC3CCCCN3)C(F)(F)F)cc2F)CC1` (centres unmarked) [Example 94, N-{4-[4-(Ethylcarbamoyl-phenyl-methyl)-piperazin-1-yl]-3-fluoro-phenyl}-3,3,3-trifluoro-2-piperidin-2-ylmethyl-propionamide], the IC50 was 10 µM.

`CCNC(=O)C(c1ccccc1)N1CCN(c2ccc(NC(=O)CN3CCN(C(C)C)CC3)cc2F)CC1` (centres unmarked) [Example 95, N-Ethyl-2-(4-{2-fluoro-4-[2-(4-isopropyl-piperazin-1-yl)-acetylamino]-phenyl}-piperazin-1-yl)-2-phenyl-acetamide]: the IC50 stood at 10 µM.

As to `CCNC(=O)C(c1ccccc1)N1CCN(c2ccc(NC(=O)C3CCN3C3CCCCC3)cc2F)CC1` (centres unmarked) [Example 96, 1-Cyclohexyl-azetidine-2-carboxylic acid {4-[4-(ethylcarbamoyl-phenyl-methyl)-piperazin-1-yl]-3-fluoro-phenyl}-amide], the IC50 stood at 9 µM.

Consider `CCNC(=O)C(c1ccccc1)N1CCN(c2ccc(NC(=O)/C=C\c3ccccc3OC)cc2F)CC1` (centres unmarked) [Example 97, (Z)—N-{4-[4-(Ethylcarbamoyl-phenyl-methyl)-piperazin-1-yl]-3-fluoro-phenyl}-3-(2-methoxy-phenyl)-acryl amide], for which the IC50 worked out at 1.1 µM.

As for `COC(=O)C(c1ccccc1)N1CCN(c2ccc(NC(=O)c3cccnc3)cc2)CC1` (centres unmarked) [Example 98, Phenyl-(4-{4-[(pyridine-3-carbonyl)-amino]-phenyl}-piperazin-1-yl)-acetic acid methyl ester], the IC50 was 12 µM.

For the molecule `COC(=O)C(c1ccccc1)N1CCN(c2ccc(NC(=O)c3ccccc3I)cc2F)CC1` (centres unmarked) [Example 99, {4-[2-Fluoro-4-(2-iodo-benzoylamino)-phenyl]-piperazin-1-yl}-phenyl-acetic acid methyl ester], the IC50 amounted to 0.25 µM.

For orientation: IC50 means the point on the concentration scale where inhibition reaches its midpoint.
